Data: patent publication US5324708A, “Non-hygroscopic monoammonium salts of phosphonic and phosphinic acids” (Aklaloida Vegyeszeti Gyar Rt., priority 1991, dated 1994)
Counter-ions that a name gives are not always drawn. Like-named read-outs stand apart in the source and are kept apart here.

Legend:
[1] = Water solubility of products (in words); assay type: physicochemical
[2] = Hygroscopicity of products (in words); assay type: physicochemical; conditions: product of the example
Protocol: "Non-hygroscopic" according to our invention means, that when exposed at 25° C. to an environment containing 60% humidity no observable uptake of water takes place within 3 weeks or this uptake is less than 0.1%. The salts are crystalline, they have melting point ranges that are different from those published before and their water-solubility is somewhat increased as compared with the salts prepared with the known methods.

[3] = Uptake of humidity in open containers at 60% humidity and 25° C. (Table VI); assay type: physicochemical; conditions: 60% humidity
Protocol: The samples were investigated in open containers, at 60% humidity and 25° C.

[4] = Solubility tests, N-(phosphonomethyl)-glycine and its salts (Table IV); assay type: physicochemical
Text: Table IV illustrates some solubility values of the mono-isopropylammonium salts and di-isopropylammonium salts of N-(phosphonomethyl)-glycine on the basis of which the processes according to our invention can be reduced to practice. All solvents or solvent-mixtures can be used for our processes which show a reasonable solubility--difference between the salts and products that have to be separated.

[5] = according to prior publications; cited from earlier work

O=C(O)CNCP(=O)(O)O [Example I.1, mono-isopropylammonium salt of N-(phosphonomethyl)-glycine]
solubility in water (in words) [1]: readily soluble
hygroscopicity (in words) [2]: not hygroscopic

O=C(O)CNCP(=O)(O)O [Example I.2, mono-isopropylammonium salt of N-(phosphonomethyl)-glycine]
solubility in water (in words) [1]: readily soluble
hygroscopicity (in words) [2]: not hygroscopic

O=C(O)CNCP(=O)(O)O [Example I.12, mono-isopropylammmonium salt of N-(phosphonomethyl)-glycine]
solubility in water (in words) [1]: readily soluble
hygroscopicity (in words) [2]: non-hygroscopic

O=C(O)CNCP(=O)(O)O [Example I.15, mono-isopropylammonium salt of N-(phosphonomethyl)-glycine]
solubility in water (in words) [1]: readily soluble
hygroscopicity (in words) [2]: non-hygroscopic

O=C(O)CNCP(=O)(O)O [Example I.18, mono-(dimethyl-ammonium)-salt of N-(phosphonomethyl)-glycine]
solubility in water (in words) [1]: readily soluble
hygroscopicity (in words) [2]: non-hygroscopic

O=C(O)CNCP(=O)(O)O [Example I.20, mono-isopropylammonium salt of N-(phosphonomethyl)-glycine]
solubility in water (in words) [1]: readily soluble
hygroscopicity (in words) [2]: non-hygroscopic

O=C(O)CNCP(=O)(O)O [Example I.24, mono-isopropylammonium salt of N-(phosphonomethyl)-glycine]
solubility in water (in words) [1]: readily soluble
hygroscopicity (in words) [2]: non-hygroscopic

O=C(O)CNCP(=O)(O)O [I.7, mono-isopropylammonium salt of N-(phosphonomethyl)-glycine]
hygroscopicity (in words) [2]: non-hygroscopic

O=C(O)CNCP(=O)(O)O [I.8, mono-isopropylammoniumsalt of N-(phosphonomethyl)-glycine]
solubility in water (in words) [1]: readily soluble
hygroscopicity (in words) [2]: non-hygroscopic

CP(=O)(O)CCC(N)C(=O)O (stereo not shown) [I.9, mono-isopropylammoniumsalt of (3-amino-3-carboxy-propyl)-methane-phosphinic acid]
hygroscopicity (in words) [2]: non-hygroscopic

CP(=O)(O)CCC(N)C(=O)O (stereo not shown) [I.10, mono-isopropylammoniumsalt of (3-amino-3-carboxy-propyl)-methane-phosphinic acid]
hygroscopicity (in words) [2]: non-hygroscopic

O=C(O)CNCP(=O)(O)O [I.13, mono-isopropylammmonium salt of N-(phosphonomethyl)-glycine]
solubility in water (in words) [1]: readily soluble
hygroscopicity (in words) [2]: non-hygroscopic

O=C(O)CNCP(=O)(O)O [I.14, mono-isopropylammonium salt of N-(phosphonomethyl)-glycine]
solubility in water (in words) [1]: readily soluble
hygroscopicity (in words) [2]: non-hygroscopic

O=C(O)CNCP(=O)(O)O [I.16, mono-isopropylammonium salt of N-(phosphonomethyl)-glycine]
solubility in water (in words) [1]: readily soluble
hygroscopicity (in words) [2]: non-hygroscopic

O=C(O)CNCP(=O)(O)O [I.17, mono-isopropylammonium salt of N-(phosphonomethyl)-glycine]
solubility in water (in words) [1]: readily soluble
hygroscopicity (in words) [2]: non-hygroscopic

O=C(O)CNCP(=O)(O)O [I.19, mono-ethylammonium salt of N-(phosphonomethyl)-glycine]
solubility in water (in words) [1]: readily soluble
hygroscopicity (in words) [2]: non-hygroscopic

O=C(O)CNCP(=O)(O)O [I.21, mono-isopropylammonium salt of N-(phosphonomethyl)-glycine]
solubility in water (in words) [1]: readily soluble
hygroscopicity (in words) [2]: non-hygroscopic

O=C(O)CNCP(=O)(O)O [I.22, mono-isopropylammonium salt of N-(phosphonomethyl)-glycine]
solubility in water (in words) [1]: readily soluble
hygroscopicity (in words) [2]: non-hygroscopic

O=C(O)CNCP(=O)(O)O [I.23, mono-isoptopylammonium salt of N-(phosphonomethyl)-glycine]
solubility in water (in words) [1]: readily soluble
hygroscopicity (in words) [2]: non-hygroscopic

O=C(O)CNCP(=O)(O)O [I.25, mono-isopropylammonium salt of N-(phosphonomethyl)-glycine]
solubility in water (in words) [1]: readily soluble
hygroscopicity (in words) [2]: non-hygroscopic

O=C(O)CNCP(=O)(O)O [I.26, mono-isopropylammonium salt of N-(phosphonomethyl)-glycine]
solubility in water (in words) [1]: readily soluble
hygroscopicity (in words) [2]: non-hygroscopic

O=C(O)CNCP(=O)(O)O [di-IPA salt, di-(mono-isopropylamine)-salt of N-(phosphonomethyl)-glycine]
solubility in water (in words) [1]: readily soluble
Uptake of humidity ([3]; 1 day, listed as di-isopropyl-ammonium salt of N-(phosphonomethyl)-glycine): 13.0%
Uptake of humidity ([3]; 2 days, listed as di-isopropyl-ammonium salt of N-(phosphonomethyl)-glycine): 14.5%
Uptake of humidity ([3]; 7 days, listed as di-isopropyl-ammonium salt of N-(phosphonomethyl)-glycine): 16.1%
Uptake of humidity ([3]; 14 days, listed as di-isopropyl-ammonium salt of N-(phosphonomethyl)-glycine): 18.8%
Uptake of humidity ([3]; 30 days, listed as di-isopropyl-ammonium salt of N-(phosphonomethyl)-glycine): 19.2%
Uptake of humidity ([3]; 90 days, listed as di-isopropyl-ammonium salt of N-(phosphonomethyl)-glycine): 30.9%
Appearance ([3]; within 1 day): sticky and hygroscopic
Appearance ([3]; within 4 days): completely liquid
SOLUBILITY ([4]; benzene): < 0.1 g/L
SOLUBILITY ([4]; benzyl-alcohol): 420 g/L
SOLUBILITY ([4]; dimethyl-formamide): 22 g/L
SOLUBILITY ([4]; isopropyl amine): < 0.1 g/L
SOLUBILITY ([4]; methanol): 570 g/L
SOLUBILITY ([4]; n-butanol): 35 g/L
SOLUBILITY ([4]; n-propanol): 170 g/L
SOLUBILITY ([4]; propylene-glycol): 244 g/L

O=C(O)CNCP(=O)(O)O [glyphosate, N-(phosphonomethyl)-glycine]
SOLUBILITY ([4]; benzene): < 0.1 g/L
SOLUBILITY ([4]; benzyl-alcohol): < 0.2 g/L
SOLUBILITY ([4]; dimethyl-formamide): < 0.2 g/L
SOLUBILITY ([4]; ethanol): 0.2 g/L
SOLUBILITY ([4]; isopropanol): < 0.5 g/L
SOLUBILITY ([4]; methanol): < 0.3 g/L
SOLUBILITY ([4]; n-propanol): < 0.5 g/L
SOLUBILITY ([4]; water): 12 g/L

O=C(O)CNCP(=O)(O)O [mono-IPA salt, mono-isopropylammonium salt of N-(phosphonomethyl)-glycine]
hygroscopicity (in words) [5]: extreme hygroscopic nature
Uptake of humidity ([3]; 1 day): 0.1%
Uptake of humidity ([3]; 2 days): 0.1%
Uptake of humidity ([3]; 7 days): 0.1%
Uptake of humidity ([3]; 14 days): 0.1%
Uptake of humidity ([3]; 30 days): 0.1%
Uptake of humidity ([3]; 90 days): 0.1%
Appearance ([3]; after 30 days): unchanged
SOLUBILITY ([4]; benzene): < 0.1 g/L
SOLUBILITY ([4]; benzyl-alcohol): 0.5 g/L
SOLUBILITY ([4]; dimethyl-formamide): 1.8 g/L
SOLUBILITY ([4]; isopropyl amine): < 0.1 g/L
SOLUBILITY ([4]; methanol): 56 g/L
SOLUBILITY ([4]; n-butanol): 0.1 g/L
SOLUBILITY ([4]; n-propanol): 0.7 g/L
SOLUBILITY ([4]; propylene-glycol): 184.0 g/L
SOLUBILITY ([4]; water): 1470 g/L

CP(=O)(O)CCC(N)C(=O)O (stereo not shown) [mono-ammonium salt, (3-amino-3-carboxy-propyl)-methane-phosphinic acid ammonium salt]
hygroscopicity (in words) [5]: hygroscopic
